Reference: patent US10322112B2, “Compound combinations for attenuation of bacterial virulence” (priority 2016, dated 2019)

How the values were obtained:
LasR [1] = biological target: T1, LasR (Pseudomonas aeruginosa, UniProt P25084); assay: E. coli reporter gene primary antagonism assay, LasR; type: cell-based; settings: compounds at 100 mm against 2 nm OdDHL; E. coli beta-galactosidase reporter strain JLD271/pJN105L/pSC11; untreated culture = 100%; negative values indicate receptor agonism; error ±10%
T1 construct: expressed in transfected cells; host or cells: E. coli JLD271
Procedure: (§1) Percent agonism of a given non-native inducer in a given bacterium and QS system receptor is measured with resepct to the maximum level of agonism (activation) by the native ligand of that receptor in the given bacterium. Percent antagonism is measured in competitive assays. The QS system of interest is activated to 100% with added or endogenous native ligand and the % antagonism of the non-native inducer is assessed with respect to 100% activation by the native inducer. The native ligand which induces LasR is OdDHL, which induces RhlR is BHL and which induces PqsR is PQS. As described herein and in cited references, assays for assessment of % agonism or % atangonism may be performed in E. coli systems (heterologous) or in the bacterium of interest, e.g., Pseudomonas. Dependent upon the assay system employed native ligand may be endogenously present or it may be exogenously supplied to the assay system. […] In antagonism assays using the native strains with functional QS systems, e.g., those of P. aeruginosa, endogenous native ligand is made in the system, so no native ligand is added. In native strains having one or more non-functional QS systems (mutant strains), e.g., P. aeruginosa mutants with non-functional QS systems, native ligand is added at about 10-100× the EC50 of the native ligand. In the agonism assay, native ligand is added as a control. Details of the assays are provided herein in Example 9 and in references cited in Example 9.

QscR [2] = biological target: T2, QscR (Pseudomonas aeruginosa, UniProt G3XD77); type: cell-based; parameters: expressed in transfected cells; host or cells: E. coli JLD271; settings: compounds at 100 mm against 15 nm OdDHL; E. coli reporter strain JLD271/pJN105Q/pSC11-Q; untreated culture = 100%; error ±10%
Text: (§2) Construction of pSC11-Q: A 348 bp fragment spanning the upstream region of PA1897 (¢304 to +43 relative to the PA1897 translationalstart codon) was amplified from plasmid pJL101*by using primers 5′-GAATAT GGATCC TCTCTC CGCAGA TACCTG-3′ (BamHI site underlined) SEQ ID NO:5 and 5′-GCTATT GAATTC TGAAGA TGAATA GCGCCAC-3′ (EcoRI site underlined) SEQ ID NO:6. The PCR-generated fragment was digested with EcoRI and BamHI and subsequently ligated into EcoRI/BamHI-digested pPROBE-KT to generate pPROBE-KQ2. […] CGCC-3′ (BamHI site underlined) SEQ ID NO:8. The PCR-generated fragment was digested with SalI and BamHI and subsequently ligated into SalI/BamHI-digested pSC11 to generate pSC11-Q.
(§3) E. coli reporter gene assays: Primary assays for RhlR, LasR, and QscR activity in E. coli JLD271 reporter (beta-galactosidase) strains were performed as reported by Welsh et al. 2015, with the following modifications:
(§4) For all primary and dose-response antagonism assays, the concentration of native ligand utilized was approximately equal to its EC50 value in each bacterial reporter strain. For RhlR, LasR, and QscR primary antagonism assays, synthetic ligand (100 mm) was screened against BHL (10 mm), OdDHL (2 nm), and OdDHL (15 nm), respectively. For RhlR, LasR, and QscR primary agonism assays, synthetic compound (100 mm) was screened alongside and compared to the natural ligand (900 mm BHL or 100 mm OdDHL) for the receptor. As part of the beta-galactosidase assay protocol, plates to which CPRG substrate had been added were incubated at either 25° C. (LasR assay) or 30° C. (RhlR and QscR assays) until positive control wells developed a deep red color (10 min for LasR, 30 min for RhlR, and 60 min for QscR). Dose-response reporter gene assays were performed according to these protocols by using varying concentrations of compound.

RhlR [3] = biological target: T3, RhlR (Pseudomonas aeruginosa, UniProt P54292); assay: E. coli reporter gene antagonism assay, RhlR; type: cell-based; settings: compounds at 100 mm in the presence of 10 mm BHL; untreated culture = 100%; error ±10%; selected data reproduced from Welsh et al. 2015
T3 construct: expressed in transfected cells; host or cells: E. coli JLD271
Procedure: as §1

RhlR [4] = biological target: T3, RhlR; assay: E. coli reporter gene primary agonism assay, RhlR; type: cell-based; settings: compounds at 100 mm; 900 mm BHL = 100%; error ±10%; selected data reproduced from Welsh et al., 2015
Procedure: as §1

LasR [5] = biological target: T1, LasR; assay: E. coli reporter gene primary agonism assay, LasR; type: cell-based; settings: compounds at 100 mm; E. coli reporter strain JLD271/pJN105L/pSC11; 100 mm OdDHL = 100%; error ±10%
Procedure: as §1

QscR [6] = biological target: T2, QscR; settings: compounds at 100 mm; E. coli reporter strain JLD271/pJN105Q/pSC11-Q; 100 mm OdDHL = 100%; error ±10%
Text: as §2, §3, §4

T2 sequence (G3XD77 entry or part of it): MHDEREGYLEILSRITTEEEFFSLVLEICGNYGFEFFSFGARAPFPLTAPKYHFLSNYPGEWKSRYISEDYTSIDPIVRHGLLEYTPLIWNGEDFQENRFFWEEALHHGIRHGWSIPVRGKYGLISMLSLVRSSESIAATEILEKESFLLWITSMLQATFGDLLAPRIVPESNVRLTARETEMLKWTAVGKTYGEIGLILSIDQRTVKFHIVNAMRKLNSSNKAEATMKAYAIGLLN
T3 sequence (P54292 whole entry): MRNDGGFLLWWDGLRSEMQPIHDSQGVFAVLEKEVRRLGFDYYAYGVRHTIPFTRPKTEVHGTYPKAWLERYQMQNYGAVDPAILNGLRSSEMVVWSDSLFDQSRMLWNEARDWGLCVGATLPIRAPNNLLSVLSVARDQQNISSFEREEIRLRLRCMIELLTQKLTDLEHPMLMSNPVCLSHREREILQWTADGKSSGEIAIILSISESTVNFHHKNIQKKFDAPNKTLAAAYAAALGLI
T1 sequence (P25084 whole entry): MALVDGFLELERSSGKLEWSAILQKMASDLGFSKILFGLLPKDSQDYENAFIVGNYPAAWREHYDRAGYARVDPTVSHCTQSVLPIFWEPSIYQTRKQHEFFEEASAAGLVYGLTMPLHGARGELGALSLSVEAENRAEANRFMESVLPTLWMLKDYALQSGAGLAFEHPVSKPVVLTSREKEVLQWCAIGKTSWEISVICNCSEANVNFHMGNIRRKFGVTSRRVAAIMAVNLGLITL

Row | Compound | Inhibition [%] LasR (LasR [1]) [%] | Inhibition [%] QsCR (QscR [2]) [%] | Inhibition [%] RhlR (RhlR [3]) [%] | Activation [%] RhlR (RhlR [4]) [%] | Activation [%] LasR (LasR [5]) [%] | Activation [%] QscR (QscR [6]) [%]
1 | O=C(Cc1ccc(Br)cc1)N[C@@H]1CCOC1=O [B4] | 15 | 37 | 66 | – | – | –
2 | O=C(CC1CCCC1)N[C@H]1CCOC1=O [B12] | – | – | – | 79 | −10 | 12
3 | O=C(Cc1ccccc1)N[C@H]1CCOC1=O [C1] | – | – | – | 84 | −3 | 3
4 | O=C(Cc1ccc(F)cc1)N[C@H]1CCOC1=O [C2] | – | – | – | 71 | 12 | 10
5 | O=C(Cc1cccc(F)c1)N[C@H]1CCOC1=O [C3] | – | – | – | 79 | −2 | 13
6 | O=C(Cc1ccccc1F)N[C@H]1CCOC1=O [C4] | – | – | – | 66 | −4 | 0
7 | O=C(Cc1cccc(Cl)c1)N[C@H]1CCOC1=O [C6] | – | – | – | 82 | 30 | 30
8 | O=C(Cc1cccc(Br)c1)N[C@H]1CCOC1=O [C8] | – | – | – | 80 | 44 | 33
9 | O=C(Cc1ccc(I)cc1)N[C@H]1CCOC1=O [C10] | 58 | −79 | 84 | – | – | –
10 | O=C(Cc1cccc(I)c1)N[C@H]1CCOC1=O [C11] | – | – | – | 63 | 56 | 34
11 | O=C(Cc1ccccc1I)N[C@H]1CCOC1=O [C12] | – | – | – | 70 | −4 | 5
12 | O=C(Cc1ccc([N+](=O)[O-])cc1)N[C@H]1CCOC1=O [C13] | 91 | 14 | 60 | – | – | –
13 | O=C(Cc1c(F)c(F)c(F)c(F)c1F)N[C@H]1CCOC1=O [C16] | 76 | 74 | 66 | – | – | –
14 | Cc1ccc(CC(=O)N[C@H]2CCOC2=O)cc1 [C19] | 81 | 64 | 87 | – | – | –
15 | O=C(Cc1ccc(C(F)(F)F)cc1)N[C@H]1CCOC1=O [C20] | 93 | 26 | 86 | – | – | –
16 | C=CCCC(=O)N[C@H]1CCOC1=O [D8] | – | – | – | 81 | 26 | 13
17 | O=C(COc1ccc(OC(F)(F)F)cc1)N[C@H]1CCOC1=O [D15] | −80 | 4 | 61 | – | – | –

Row | Compound | Inhibition [%] LasR (LasR [1]) [%] | Inhibition [%] QsCR (QscR [2]) [%] | Inhibition [%] RhlR (RhlR [3]) [%] | Activation [%] RhlR (RhlR [4]) [%] | Activation [%] LasR (LasR [5]) [%] | Activation [%] QscR (QscR [6]) [%]
18 | Cc1cccc(CC(=O)N[C@H]2CCOC2=O)c1 [E1] | – | – | – | 69 | 21 | 29
19 | COc1cccc(CC(=O)N[C@H]2CCOC2=O)c1 [E2] | – | – | – | 86 | 23 | 26
20 | N#Cc1cccc(CC(=O)N[C@H]2CCOC2=O)c1 [E5] | – | – | – | 67 | 62 | 34
21 | CSc1ccc(CC(=O)N[C@H]2CCOC2=O)cc1 [E6] | 85 | 24 | 78 | – | – | –
22 | CSc1cccc(CC(=O)N[C@H]2CCOC2=O)c1 [E7] | – | – | – | 70 | 32 | 24
23 | O=C(Cc1ccc(SC(F)(F)F)cc1)N[C@H]1CCOC1=O [E8] | 23 | 40 | 65 | – | – | –
24 | O=C(Cc1ccc(Cl)c(Cl)c1)N[C@H]1CCOC1=O [E11] | 28 | 15 | 62 | – | – | –
25 | O=C(Cc1ccc2ccccc2c1)N[C@H]1CCOC1=O [E12] | 81 | 60 | 77 | – | – | –
26 | Cc1ccc(OCC(=O)N[C@H]2CCOC2=O)cc1 [E15] | 84 | 33 | 75 | – | – | –
27 | COc1ccc(OCC(=O)N[C@H]2CCOC2=O)cc1 [E17] | 83 | 36 | 66 | – | – | –
28 | O=C(COc1ccc(Br)cc1)N[C@H]1CCOC1=O [E21] | 31 | 20 | 66 | – | – | –
29 | O=C(COc1ccc(C(F)(F)F)cc1)N[C@H]1CCOC1=O [E23] | −49 | 22 | 64 | – | – | –
30 | O=C(CCc1ccc(Cl)cc1)N[C@H]1CCOC1=O [E30] | – | – | – | 64 | 53 | 79
31 | O=C(CCc1cccc(Br)c1)N[C@H]1CCOC1=O [E31] | – | – | – | 65 | 71 | 58
32 | CSc1ccc(CCC(=O)N[C@H]2CCOC2=O)cc1 [E34] | −52 | −190 | 62 | – | – | –
33 | O=C(CCc1ccc([N+](=O)[O-])cc1)N[C@H]1CCOC1=O [E37] | – | – | – | 69 | 22 | 65
34 | O=C(CCCC1CCCCC1)N[C@H]1CCOC1=O [S6] | 56 | 34 | 69 | – | – | –
